Patent US5622969A, “Method of treating leukotriene caused diseases with N-benzyl dihydroindole LTD4 antagonists” (Eli Lilly and Company, priority 1995, dated 1997)

Tests used:
[1] = target: T1, LTD4 receptor (guinea pig lung membrane) (Cavia porcellus, UniProt Q2NNR5); experiment: Assay 3 - Guinea Pig Lung Membrane [3H] LTD4 Radioligand Binding (GPLM binding); conditions: [3H] LTD4, guinea pig lung membrane, 30 min, 30° C., pH 6.5; for Ki: read-out: GPLM binding (pKi) (converted)
T1 construct: guinea-pig lung membrane preparation; from tissue; host or cells: guinea pig lung membranes
T1 sequence (Q2NNR5 1-340): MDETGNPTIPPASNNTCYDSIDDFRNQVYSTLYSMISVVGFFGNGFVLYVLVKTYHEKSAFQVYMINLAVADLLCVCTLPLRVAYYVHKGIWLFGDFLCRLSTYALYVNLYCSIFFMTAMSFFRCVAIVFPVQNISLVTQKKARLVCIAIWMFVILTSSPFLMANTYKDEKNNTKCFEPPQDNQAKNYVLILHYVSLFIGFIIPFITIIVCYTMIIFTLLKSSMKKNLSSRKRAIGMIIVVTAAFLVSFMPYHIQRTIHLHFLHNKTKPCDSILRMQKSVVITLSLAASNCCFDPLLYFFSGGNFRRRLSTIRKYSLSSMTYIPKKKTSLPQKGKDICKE
Method: Assay 3--Guinea Pig Lung Membrane [^3 H] LTD4 Radioligand Binding: [^3 H] LTD4 was purchased from New England Nuclear (Boston, Mass.). All other chemicals were purchased from Sigma (St. Louis, Mo.). Incubations were performed in silanised glass tubes and contained 30 mg of guinea-pig lung membrane preparation (Saussy, et al., Mol. […] The binding reaction was terminated after 30 min. at 30° C. by the addition of 4 ml ice cold wash buffer (25 mM Tris --HCl, pH 7.5), followed immediately by vacuum filtration over Whatman (GF/C glass fibre filters, using a Brandel (Gaithersburg, Md.) 48 place harvester. The tubes and filter were washed 3×4 ml in cold wash buffer. Retained radioactivity was determined by liquid scintillation counting at 50% counting efficiency using Ready Protein Plus cocktail (Beckman, Fullerton, Calif.). Data were analyzed using linear regression analysis of log-logit plots of the values between 10% and 90% of control biding to calculate I[…] and slope factors (pseudo-Hill coefficients). IC50 values were corrected for radioligand concentrations (Cheng and Prusoff, Biochem. Pharmacol. 22:3099-3108, 1973) to calculate Ki values.

[2] = target: T2, LTD4 receptor (intestinal smooth muscle receptors, guinea pig ileum) (Cavia porcellus, UniProt Q2NNR5); experiment: Assay 2 - Guinea Pig Ileum, antagonism of LTD4 contraction; conditions: drug added 30 minutes prior, read-out: GP ileum (pKb) (converted)
T2 construct: Terminal ilea were removed from the animals; from tissue; host or cells: guinea pig terminal ileum segments
T2 sequence (Q2NNR5 1-340): T1 sequence (Q2NNR5 1-340)
Method: Assay 2--Guinea Pig Ileum:
Guinea pig ileum was used to determine the potency of novel LTD4 receptor antagonists on intestinal smooth muscle receptors. Terminal ilea were removed from the animals exsanguinated after CO2 asphyxiation and cut into smaller segments of approximately 2 to 3 cm. Tissues were placed in organ baths containing Krebs'bicarbonate solution prepared without indomethacin and 1-cysteine and aerated with 95% O2 and 5% CO2. After a 60 minute equilibration period, 3 submaximal contractions to histamine (3×10^-6 M) were obtained on all tissues. A cumulative concentration-response curve to LTD4 was then generated using the method of Van Rossum (Arch. Int. Pharmacodyn. Ther. 143:299, 1963). Agonist was washed from the baths and the tissues permitted to recover. After a second LTD4 concentration-response curve was produced, the ilea were washed once again and permitted to re-equilibrate. Experimental drug was added to the baths 30 minutes prior to a final LTD4 concentration-response curve.
(§1) The contractions of trachea and ilea to LTD4 in the presence of the drug was compared to responses in the absence of drug. KB values were calculated by the method of Furchgott (Ann. N.Y. Acad. Sci., 139:553, 1967) using the following equation: KB =[Antagonist]/Dose-Ratio-1.

[3] = target: T3, leukotriene receptor (guinea pig trachea) (Cavia porcellus, UniProt Q2NNR5); experiment: Assay 1 - Guinea Pig Tracheae, leukotriene receptor antagonism (LTD4 contraction); conditions: antagonist added 45 minutes prior, read-out: GP trach (pKb) (converted)
T3 construct: Trachea were cut into ring segments and the epithelium removed; from tissue; host or cells: guinea pig tracheal rings, epithelium removed (male Hartley)
T3 sequence (Q2NNR5 1-340): T1 sequence (Q2NNR5 1-340)
Method: Assay 1--Guinea Pig Tracheae
Leukotriene receptor antagonism was evaluated in isolated smooth muscles by the following procedure:
Male Hartley guinea pigs weighing 250-400 grams were asphyxiated with CO2 and exsanguinated. Trachea were excised and placed in Krebs'-bicarbonate solution of the following composition in mM/liter: NaCl, 118.2; NaHCO3, 24.8; KCl, 4.6; KH2 PO4, 1.2, MgSO4.7H2 O, 1.2; dextrose, 10.0; CaCl2.2H2 O, 2.5; 1-cysteine, 3.0, and indomethacin, 3 μM. Trachea were cut into ring segments and the epithelium removed by gently rubbing the luminal surface with a cotton swab. Tracheal rings were placed on supports constructed from two 1 inch 30 gauge disposable stainless steel hypodermic needles (Hooker, et al., 1977, Blood Vessels 14:1-11), and transferred to organ baths containing Krebs' solution maintained at 37° C. and aerated with 95% O2 and 5% CO2. Isometric measurements were made with a Grass FTO3C force-displacement transducer and recorded on a Grass polygraph as changes in grams of force. After approximately 60 minutes of equilibration, a single submaximal concentration of LTD4 (3×10^-8 M) was used to contract the trachea. Two LTD4 concentration-response curves were then generated using the cumulative response technique of Van Rossum (1963). A potential leukotriene receptor antagonist was added to the tissue bath 45 minutes prior to generation of the second LTD4 concentration-response curve.
as §1

Row | SMILES | GPLM binding (pKi) [1] | Kb [2] | Kb [3] | Ki [1]
1 | Clc1ccc2ccc(/C=C/c3cccc(CN4CCc5cccc(CCc6nnn[nH]6)c54)c3)nc2c1 [Example 4, 5-[2-[1-[3-[2-E-(7-Chloroquinolin-2-yl)ethenyl]benzyl]-2,3-dihydroindol-7-yl]ethyl]-1H-tetrazole] | 8.3 | 2.34 nM | 28.8 nM | 
2 | Clc1ccc2ccc(COc3cccc(CN4CCc5cccc(CCc6nnn[nH]6)c54)c3)nc2c1 [Example 5, 5-[2-[1-[3-(7-Chloroquinolin-2-ylmethoxy)benzyl]-2,3-dihydroindol-7-yl]-ethyl]-1H-tetrazole] | 8.0 | 3.89 nM | 8.32 nM | 
3 | Clc1ccc2ccc(COc3ccc(CN4CCc5cccc(CCc6nnn[nH]6)c54)cc3)nc2c1 [Example 6, 5-[2-[1-[4-(7-Chloroquinolin-2-ylmethoxy)benzyl]-2,3-dihydroindol-7-yl]-ethyl]-1H-tetrazole] | 7.6 | 3.24 nM | 25.7 nM | 
4 | c1cc(CN2CCc3cccc(CCc4nnn[nH]4)c32)cc(OCc2ccc3ccccc3n2)c1 [Example 7, 5-[2-[1-[3-(Quinolin-2-ylmethoxy)benzyl]-2,3-dihydroindol-7-yl]-ethyl]-1H-tetrazole] | 7.3 | 11.2 nM | 15.8 nM | 
5 | C(=C\c1ccc2ccccc2n1)/c1cccc(CN2CCc3cccc(CCc4nnn[nH]4)c32)c1 [Example 9, 5-[2-[1-[3-[2-E-(Quinolin-2-yl)ethenyl]benzyl]-2,3-dihydroindol-7-yl]ethyl]-1H-tetrazole] | 7.8 | 2.51 nM |  | 
6 | Clc1ccc2ccc(/C=C/c3cccc(CN4CCc5cccc(OCc6nn[nH]n6)c54)c3)nc2c1 [Example 10, 5-[1-[3-[2-E-(7-Chloroquinolin-2-yl)ethenyl]benzyl]-2,3-dihydroindol-7-yloxymethyl]-1H-tetrazole] |  |  |  | 2.45 nM
7 | Clc1ccc2ccc(/C=C/c3ccc(CN4CCc5cccc(CCc6nnn[nH]6)c54)cc3)nc2c1 [Example 11, 5-[2-[1-[4-[2-E-(7-Chloroquinolin-2-yl)ethenyl]benzyl]-2,3-dihydroindol-7-yl]-ethyl]-1H-tetrazole] |  |  |  | 2.34 nM
